This is an account of results in patent EP1469074B1, “Human calcium channel compositions and methods” (priority 1991, dated 1993).

Experiment [1] has as its system human neuronal calcium channel α1D (SEQ ID No. 1), α2 (SEQ ID No. 11) and β1 (SEQ ID No. 9) subunits, stably expressed in HEK 293 cells. The experiment is described as follows: Whole-cell patch clamp of barium currents in stably transfected HEK 293 cells. The note with it: Bay K 8644 1 µM.
Experiment [2] deals with human neuronal calcium channel α2 and β1 subunits, expressed in Xenopus laevis oöcytes. The experiment is described as follows: Two-electrode voltage clamp of barium currents in Xenopus laevis oöcytes injected with α2 and β1 transcripts (no α1D; comparison). Format: cell-based. The note with it: Bay K 8644; n=11.
Experiment [3] deals with human neuronal calcium channel α1D and α2 subunits, expressed in Xenopus laevis oöcytes. Description: Two-electrode voltage clamp of barium currents in Xenopus laevis oöcytes injected with α1D and α2 transcripts. Format: cell-based. Particulars: Bay K 8644; very small currents (15-30 nA); holding potential -90 mV. The source says: Plasmids pVDCC III.RBS(A), containing of pcDNA1 and the α1D cDNA that begins with a ribosome binding site and the eighth ATG codon of the coding sequence (see Example III.A.3.d), plasmid pHBCaCHα1A containing of pcDNA1 and an α2 subunit cDNA (see Example IV), and plasmid pHBCaCHβ1bRBS (A) containing pcDNA1 and the β1 DNA lacking intron sequence and containing a ribosome binding site (see Example III), were linearized by restriction digestion. The α1D cDNA- and α2 subunit-encoding plasmids were digested with XhoI, and the β1 subunit-encoding plasmid was digested with EcoRV. The DNA insert was transcribed with T7 RNA polymerase.
Background: In two-electrode clamp one electrode senses voltage and the other passes current.

Experiment [4] concerns human neuronal calcium channel α1D (SEQ ID No. 1), α2 (SEQ ID No. 11) and β1 (SEQ ID No. 9) subunits, expressed in HEK 293 cells. Description: Whole-cell patch clamp of barium currents in transiently transfected HEK 293 cells. The experiment is classed as cell-based. Particulars: 1 µM Bay K 8644. As for the experimental part:
Pflugers Arch. 391:85-100].
Two days after transient transfection of HEK 293 cells with α1, α2 and β1 subunit-encoding cDNA and the lacZ gene, individual transfectants were assayed for voltage-dependent barium currents. The currents in nine transfectants were recorded.
On the technique in general: The patch-clamp technique gives a direct electrical read-out from membranes.

As for `COC(=O)C1=C(C)NC(C)=C([N+](=O)[O-])C1c1ccccc1C(F)(F)F` (stereo not drawn) [Bay K 8644], in experiment [1] (depolarized to -10 mV from holding potential -90 mV, approximately 35pA in its absence), the “barium current during application of the compound” value is listed as “approximately 75 pA”. For the same molecule, the “shift of the current-voltage relation” value in experiment [1] (same cell, series of depolarizing voltages) is reported as “about -10 mV”. The “sensitivity of inward barium currents to the compound” value in experiment [2] is listed as “insensitive”. Further, the “response of barium currents to the compound” value in experiment [3] is recorded as “little or no response”. The “effect on inward barium current” value in experiment [4] (holding potential -90 mV, 15 mM Ba2+ bath, one transfectant) was “significantly enhanced in magnitude”. The “largest inward barium current in the presence of the compound” value in experiment [4] (membrane depolarized to 0 mV from holding potential -90 mV) is reported as -160 pA.
